PubChem BioAssay AID2060327 (Molecular Pharmacology Branch, DTP, NCI, 2025)
pIC50: −log10 of the molar value.

Tested on: PC-3 multi-cell spheroids, viability
Test: Anticancer human tumor PC-3 cell line growth inhibition [IpAb];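 note: spheroids exposed to compounds for 7 days before readout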;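 for viability, T/C: 100% = DMSO vehicle control wells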
Conditions: for pIC50: curve of first compound; for viability, T/C: stronger effect = lower value
Outline: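 Combinations with ipatasertib or abemaciclib were tested on tumour spheroids holding HUVEC (25%) and MSC (15%) alongside 60% malignant cells. Top concentration was at or near clinical Cmax (10 microM if undefined), descending in half-log steps.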

[1] = second compound 0.1 µM, first compound 0.0316 µM
[2] = second compound 0.1 µM, first compound 0.1 µM
[3] = second compound 0.316 µM, first compound 0.0316 µM
[4] = second compound 0.316 µM, first compound 0.1 µM
[5] = second compound 1 µM, first compound 0.0316 µM
[6] = second compound 1 µM, first compound 0.1 µM
[7] = second compound 3.16 µM, first compound 0.0316 µM
[8] = second compound 3.16 µM, first compound 0.1 µM
[9] = second compound 10 µM, first compound 0.0316 µM
[10] = second compound 10 µM, first compound 0.1 µM

C=CC(=O)N1CCN(c2nc(=O)n(-c3c(C)ccnc3C(C)C)c3nc(-c4c(O)cccc4F)c(F)cc23)C(C)C1 (stereo not given) + CC(C)NCC(C(=O)N1CCN(c2ncnc3c2C(C)CC3O)CC1)c1ccc(Cl)cc1
pIC50 (second compound 0.1 µM): < 5.00
pIC50 (second compound 0.316 µM): > 7.50
pIC50 (second compound 1 µM): > 7.50
pIC50 (second compound 3.16 µM): > 7.50
pIC50 (second compound 10 µM): > 7.50
viability, T/C [1]: 82%
viability, T/C [2]: 73.5%
viability, T/C (second compound 0.1 µM, first compound 0.316 µM): 72.8%
viability, T/C (second compound 0.1 µM, first compound 1 µM): 83.6%
viability, T/C (second compound 0.1 µM, first compound 3.16 µM): 99.1%
viability, T/C (second compound 0.1 µM, first compound 10 µM): 87.2%
viability, T/C [3]: 44.4%
viability, T/C [4]: 44.4%
viability, T/C (second compound 0.316 µM, first compound 0.316 µM): 43.7%
viability, T/C (second compound 0.316 µM, first compound 1 µM): 34.7%
viability, T/C (second compound 0.316 µM, first compound 3.16 µM): 41.7%
viability, T/C (second compound 0.316 µM, first compound 10 µM): 43.1%
viability, T/C [5]: 26.5%
viability, T/C [6]: 27.1%
viability, T/C (second compound 1 µM, first compound 0.316 µM): 27%
viability, T/C (second compound 1 µM, first compound 1 µM): 25.8%
viability, T/C (second compound 1 µM, first compound 3.16 µM): 26.3%
viability, T/C (second compound 1 µM, first compound 10 µM): 23.2%
viability, T/C [7]: 15.1%
viability, T/C [8]: 15%
viability, T/C (second compound 3.16 µM, first compound 0.316 µM): 15.5%
viability, T/C (second compound 3.16 µM, first compound 1 µM): 15.6%
viability, T/C (second compound 3.16 µM, first compound 3.16 µM): 17.1%
viability, T/C (second compound 3.16 µM, first compound 10 µM): 13.1%
viability, T/C [9]: 14.6%
viability, T/C [10]: 13.7%
viability, T/C (second compound 10 µM, first compound 0.316 µM): 13.4%
viability, T/C (second compound 10 µM, first compound 1 µM): 14%
viability, T/C (second compound 10 µM, first compound 3.16 µM): 14.5%
viability, T/C (second compound 10 µM, first compound 10 µM): 7.96%

CC(C)(C)c1cnc(CSc2cnc(NC(=O)C3CCNCC3)s2)o1 + CC(C)NCC(C(=O)N1CCN(c2ncnc3c2C(C)CC3O)CC1)c1ccc(Cl)cc1
pIC50 (second compound 0.1 µM): 6.78
pIC50 (second compound 0.316 µM): 6.99
pIC50 (second compound 1 µM): > 8.02
pIC50 (second compound 3.16 µM): > 8.02
pIC50 (second compound 10 µM): > 8.02
viability, T/C (second compound 0.1 µM, first compound 0.00949 µM): 80.2%
viability, T/C (second compound 0.1 µM, first compound 0.03 µM): 98.4%
viability, T/C (second compound 0.1 µM, first compound 0.0949 µM): 95.3%
viability, T/C (second compound 0.1 µM, first compound 0.3 µM): 4.14%
viability, T/C (second compound 0.1 µM, first compound 0.949 µM): 6.3%
viability, T/C (second compound 0.1 µM, first compound 3 µM): 6.84%
viability, T/C (second compound 0.316 µM, first compound 0.00949 µM): 49.9%
viability, T/C (second compound 0.316 µM, first compound 0.03 µM): 46.9%
viability, T/C (second compound 0.316 µM, first compound 0.0949 µM): 64%
viability, T/C (second compound 0.316 µM, first compound 0.3 µM): 3.47%
viability, T/C (second compound 0.316 µM, first compound 0.949 µM): 5.07%
viability, T/C (second compound 0.316 µM, first compound 3 µM): 5.91%
viability, T/C (second compound 1 µM, first compound 0.00949 µM): 31.3%
viability, T/C (second compound 1 µM, first compound 0.03 µM): 34.9%
viability, T/C (second compound 1 µM, first compound 0.0949 µM): 36.7%
viability, T/C (second compound 1 µM, first compound 0.3 µM): 3.39%
viability, T/C (second compound 1 µM, first compound 0.949 µM): 4.05%
viability, T/C (second compound 1 µM, first compound 3 µM): 5.41%
viability, T/C (second compound 3.16 µM, first compound 0.00949 µM): 17.2%
viability, T/C (second compound 3.16 µM, first compound 0.03 µM): 19.3%
viability, T/C (second compound 3.16 µM, first compound 0.0949 µM): 19.5%
viability, T/C (second compound 3.16 µM, first compound 0.3 µM): 3%
viability, T/C (second compound 3.16 µM, first compound 0.949 µM): 3.25%
viability, T/C (second compound 3.16 µM, first compound 3 µM): 4.47%
viability, T/C (second compound 10 µM, first compound 0.00949 µM): 14.8%
viability, T/C (second compound 10 µM, first compound 0.03 µM): 16.8%
viability, T/C (second compound 10 µM, first compound 0.0949 µM): 10.1%
viability, T/C (second compound 10 µM, first compound 0.3 µM): 2.76%
viability, T/C (second compound 10 µM, first compound 0.949 µM): 3.15%
viability, T/C (second compound 10 µM, first compound 3 µM): 3.94%

Cn1ncnc1[C@H]1c2n[nH]c(=O)c3cc(F)cc(c23)N[C@@H]1c1ccc(F)cc1 + CC(C)NCC(C(=O)N1CCN(c2ncnc3c2C(C)CC3O)CC1)c1ccc(Cl)cc1
pIC50 (second compound 0.1 µM): 7.88
pIC50 (second compound 0.316 µM): > 9.50
pIC50 (second compound 1 µM): > 9.50
pIC50 (second compound 3.16 µM): > 9.50
pIC50 (second compound 10 µM): > 9.50
viability, T/C (second compound 0.1 µM, first compound 0.000316 µM): 78.5%
viability, T/C (second compound 0.1 µM, first compound 0.001 µM): 71.4%
viability, T/C (second compound 0.1 µM, first compound 0.00316 µM): 52.4%
viability, T/C (second compound 0.1 µM, first compound 0.01 µM): 51.8%
viability, T/C [1]: 51.6%
viability, T/C [2]: 40.1%
viability, T/C (second compound 0.316 µM, first compound 0.000316 µM): 47.1%
viability, T/C (second compound 0.316 µM, first compound 0.001 µM): 43.8%
viability, T/C (second compound 0.316 µM, first compound 0.00316 µM): 42.9%
viability, T/C (second compound 0.316 µM, first compound 0.01 µM): 40.3%
viability, T/C [3]: 37.9%
viability, T/C [4]: 32.8%
viability, T/C (second compound 1 µM, first compound 0.000316 µM): 25.3%
viability, T/C (second compound 1 µM, first compound 0.001 µM): 23.3%
viability, T/C (second compound 1 µM, first compound 0.00316 µM): 25.2%
viability, T/C (second compound 1 µM, first compound 0.01 µM): 18.4%
viability, T/C [5]: 19.9%
viability, T/C [6]: 18.7%
viability, T/C (second compound 3.16 µM, first compound 0.000316 µM): 14.2%
viability, T/C (second compound 3.16 µM, first compound 0.001 µM): 14.1%
viability, T/C (second compound 3.16 µM, first compound 0.00316 µM): 14.7%
viability, T/C (second compound 3.16 µM, first compound 0.01 µM): 13.1%
viability, T/C [7]: 13.2%
viability, T/C [8]: 13.8%
viability, T/C (second compound 10 µM, first compound 0.000316 µM): 14.8%
viability, T/C (second compound 10 µM, first compound 0.001 µM): 14%
viability, T/C (second compound 10 µM, first compound 0.00316 µM): 13.3%
viability, T/C (second compound 10 µM, first compound 0.01 µM): 11%
viability, T/C [9]: 11.6%
viability, T/C [10]: 11.3%
